From the supplement of paper PMC10307832

What was measured:
Experiment in all cases: relative viability (nuclei count vs DMSO), 5 days (fraction); higher = more cells survive
NCI-H1734 = tested on: NCI-H1734
Summary of the method: (§1)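 After 5 days of treatment, lung cancer cells in 1536-well plates were fixed and stained in a single step (final 0.05% Triton X-100, 1% formaldehyde, 1 ug/ml Hoechst) and their nuclei counted on 4× images. Treatment had been applied by pin tool the day after seeding as one drug alone or as a fixed anchor-drug dose with five library-drug doses (not always all listed) in √10 steps. Relative viability is the nuclei count of treated wells divided by that of vehicle wells, and values are medians of duplicate plates.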

NCI-H838 = tested on: NCI-H838
Summary of the method: as §1

COR-L23 = tested on: COR-L23
Summary of the method: as §1

NCI-H1650 = tested on: NCI-H1650
Summary of the method: as §1

NCI-H1975 = tested on: NCI-H1975
Summary of the method: as §1

HCC-366 = tested on: HCC-366
Summary of the method: as §1

NCI-H2023 = tested on: NCI-H2023
Summary of the method: as §1

LOU-NH91 = tested on: LOU-NH91
Summary of the method: as §1

NCI-H1651 = tested on: NCI-H1651
Summary of the method: as §1

NCI-H2085 = tested on: NCI-H2085
Summary of the method: as §1

LU99A = tested on: LU99A
Summary of the method: as §1

NCI-H1355 = tested on: NCI-H1355
Summary of the method: as §1

BEN = tested on: BEN
Summary of the method: as §1

NCI-H1437 = tested on: NCI-H1437
Summary of the method: as §1

CAL-12T = tested on: CAL-12T
Summary of the method: as §1

NCI-H2342 = tested on: NCI-H2342
Summary of the method: as §1

NCI-H460 = tested on: NCI-H460
Summary of the method: as §1

NCI-H1793 = tested on: NCI-H1793
Summary of the method: as §1

SK-LU-1 = tested on: SK-LU-1
Summary of the method: as §1

NCI-H441 = tested on: NCI-H441
Summary of the method: as §1

NCI-H358 = tested on: NCI-H358
Summary of the method: as §1

O=c1cc(N2CCOCC2)oc2c(-c3cccc4c3sc3ccccc34)cccc12 + CC(=O)c1c(C)c2cnc(Nc3ccc(N4CCNCC4)cn3)nc2n(C2CCCC2)c1=O [Palbociclib] (partner 0.5 µM)
relative viability (NCI-H1734; first compound 0.01 µM): 0.324 | relative viability (NCI-H1734; first compound 0.03162 µM): 0.342 | relative viability (NCI-H1734; first compound 0.1 µM): 0.434 | relative viability (NCI-H1734; first compound 0.3162 µM): 0.352 | relative viability (NCI-H1734; first compound 1 µM): 0.374 | relative viability (NCI-H838; first compound 0.01 µM): 0.26 | relative viability (NCI-H838; first compound 0.03162 µM): 0.182 | relative viability (NCI-H838; first compound 0.1 µM): 0.222 | relative viability (NCI-H838; first compound 0.3162 µM): 0.228 | relative viability (NCI-H838; first compound 1 µM): 0.202 | relative viability (COR-L23; first compound 0.01 µM): 0.289 | relative viability (COR-L23; first compound 0.03162 µM): 0.303 | relative viability (COR-L23; first compound 0.1 µM): 0.317 | relative viability (COR-L23; first compound 0.3162 µM): 0.301 | relative viability (COR-L23; first compound 1 µM): 0.316 | relative viability (NCI-H1650; first compound 0.01 µM): 0.299 | relative viability (NCI-H1650; first compound 0.03162 µM): 0.363 | relative viability (NCI-H1650; first compound 0.1 µM): 0.346 | relative viability (NCI-H1650; first compound 0.3162 µM): 0.368 | relative viability (NCI-H1650; first compound 1 µM): 0.317 | relative viability (NCI-H1975; first compound 0.01 µM): 0.61 | relative viability (NCI-H1975; first compound 0.03162 µM): 0.609 | relative viability (NCI-H1975; first compound 0.1 µM): 0.626 | relative viability (NCI-H1975; first compound 0.3162 µM): 0.529 | relative viability (NCI-H1975; first compound 1 µM): 0.591 | relative viability (HCC-366; first compound 0.01 µM): 0.371 | relative viability (HCC-366; first compound 0.03162 µM): 0.417 | relative viability (HCC-366; first compound 0.1 µM): 0.409 | relative viability (HCC-366; first compound 0.3162 µM): 0.367 | relative viability (HCC-366; first compound 1 µM): 0.382 | relative viability (NCI-H2023; first compound 0.01 µM): 0.436 | relative viability (NCI-H2023; first compound 0.03162 µM): 0.325 | relative viability (NCI-H2023; first compound 0.1 µM): 0.462 | relative viability (NCI-H2023; first compound 0.3162 µM): 0.337 | relative viability (NCI-H2023; first compound 1 µM): 0.346 | relative viability (LOU-NH91; first compound 0.01 µM): 0.525 | relative viability (LOU-NH91; first compound 0.03162 µM): 0.527 | relative viability (LOU-NH91; first compound 0.1 µM): 0.522 | relative viability (LOU-NH91; first compound 0.3162 µM): 0.537 | relative viability (LOU-NH91; first compound 1 µM): 0.574 | relative viability (NCI-H1651; first compound 0.01 µM): 0.528 | relative viability (NCI-H1651; first compound 0.03162 µM): 0.486 | relative viability (NCI-H1651; first compound 0.1 µM): 0.555 | relative viability (NCI-H1651; first compound 0.3162 µM): 0.555 | relative viability (NCI-H1651; first compound 1 µM): 0.513 | relative viability (NCI-H2085; first compound 0.01 µM): 0.467 | relative viability (NCI-H2085; first compound 0.03162 µM): 0.455 | relative viability (NCI-H2085; first compound 0.1 µM): 0.492 | relative viability (NCI-H2085; first compound 0.3162 µM): 0.512 | relative viability (NCI-H2085; first compound 1 µM): 0.452 | relative viability (LU99A; first compound 0.01 µM): 0.393 | relative viability (LU99A; first compound 0.03162 µM): 0.414 | relative viability (LU99A; first compound 0.1 µM): 0.414 | relative viability (LU99A; first compound 0.3162 µM): 0.379 | relative viability (LU99A; first compound 1 µM): 0.488 | relative viability (NCI-H1355; first compound 0.01 µM): 0.424 | relative viability (NCI-H1355; first compound 0.03162 µM): 0.403 | relative viability (NCI-H1355; first compound 0.1 µM): 0.412 | relative viability (NCI-H1355; first compound 0.3162 µM): 0.39 | relative viability (NCI-H1355; first compound 1 µM): 0.392 | relative viability (BEN; first compound 0.01 µM): 0.427 | relative viability (BEN; first compound 0.03162 µM): 0.476 | relative viability (BEN; first compound 0.1 µM): 0.476 | relative viability (BEN; first compound 0.3162 µM): 0.514 | relative viability (BEN; first compound 1 µM): 0.506 | relative viability (NCI-H1437; first compound 0.01 µM): 0.3 | relative viability (NCI-H1437; first compound 0.03162 µM): 0.312 | relative viability (NCI-H1437; first compound 0.1 µM): 0.282 | relative viability (NCI-H1437; first compound 0.3162 µM): 0.31 | relative viability (NCI-H1437; first compound 1 µM): 0.281 | relative viability (CAL-12T; first compound 0.01 µM): 0.444 | relative viability (CAL-12T; first compound 0.03162 µM): 0.401 | relative viability (CAL-12T; first compound 0.1 µM): 0.587 | relative viability (CAL-12T; first compound 0.3162 µM): 0.528 | relative viability (CAL-12T; first compound 1 µM): 0.436 | relative viability (NCI-H2342; first compound 0.01 µM): 0.539 | relative viability (NCI-H2342; first compound 0.03162 µM): 0.502 | relative viability (NCI-H2342; first compound 0.1 µM): 0.537 | relative viability (NCI-H2342; first compound 0.3162 µM): 0.529 | relative viability (NCI-H2342; first compound 1 µM): 0.508 | relative viability (NCI-H460; first compound 0.01 µM): 0.178 | relative viability (NCI-H460; first compound 0.03162 µM): 0.18 | relative viability (NCI-H460; first compound 0.1 µM): 0.198 | relative viability (NCI-H460; first compound 0.3162 µM): 0.215 | relative viability (NCI-H460; first compound 1 µM): 0.135 | relative viability (NCI-H1793; first compound 0.01 µM): 0.299 | relative viability (NCI-H1793; first compound 0.03162 µM): 0.295 | relative viability (NCI-H1793; first compound 0.1 µM): 0.314 | relative viability (NCI-H1793; first compound 0.3162 µM): 0.266 | relative viability (NCI-H1793; first compound 1 µM): 0.234 | relative viability (SK-LU-1; first compound 0.01 µM): 0.473 | relative viability (SK-LU-1; first compound 0.03162 µM): 0.425 | relative viability (SK-LU-1; first compound 0.1 µM): 0.368 | relative viability (SK-LU-1; first compound 0.3162 µM): 0.391 | relative viability (SK-LU-1; first compound 1 µM): 0.347 | relative viability (NCI-H441; first compound 0.01 µM): 0.21 | relative viability (NCI-H441; first compound 0.03162 µM): 0.217 | relative viability (NCI-H441; first compound 0.1 µM): 0.207 | relative viability (NCI-H441; first compound 0.3162 µM): 0.233 | relative viability (NCI-H441; first compound 1 µM): 0.222 | relative viability (NCI-H358; first compound 0.01 µM): 0.163 | relative viability (NCI-H358; first compound 0.03162 µM): 0.127 | relative viability (NCI-H358; first compound 0.1 µM): 0.132 | relative viability (NCI-H358; first compound 0.3162 µM): 0.133 | relative viability (NCI-H358; first compound 1 µM): 0.126
